Experimental findings from ChEMBL document CHEMBL1201862, “PubChem BioAssay data set” (2004) are described below.

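Following 48 hours of exposure in 96-well plates, responses at five concentrations were used to interpolate endpoints linearly. GI50 is the concentration that inhibits growth by half.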 Activity calls are given as the source filed them. Rule as the data show it: active = GI50 up to about 1.1 µM and inactive = higher.

Among the test systems are DMS-114; LXFL 529; XF498; SNB-78; HOP-18; DLD-1; RXF 631; M19-MEL; KM-20L2.
What all share (assay): DTP human tumour cell line panel, 48 h

In general, GI50 refers to the concentration that inhibits growth by half. Take `Oc1ccc2c(c1)OCC1(O)Cc3cc(O)c(O)cc3C21` (stereo not drawn): the GI50 in the assay with DMS-114 is 26.7 µM (inactive); in the assay with LXFL 529, 18.5 µM (inactive); with XF498 it was 15.2 µM (inactive); in the assay with SNB-78, 14.7 µM (inactive); in the assay with HOP-18, 18.3 µM (inactive); in the assay on DLD-1, 17.3 µM (inactive). For the same molecule, the GI50 in the assay with RXF 631 was 41 µM (inactive); in the assay on M19-MEL it was 29.1 µM (inactive); in the assay with KM-20L2 it was 38.3 µM (inactive).

For `N#Cc1ccc(Cc2ccccn2)cc1Cl`, the GI50 in the assay with DMS-114, in the assay on LXFL 529, in the assay with SNB-78, in the assay on HOP-18, in the assay on DLD-1 and with RXF 631 was > 100 µM (inactive) in each case. The GI50 in the assay on M19-MEL is > 100 µM (inactive).

On to `Cc1cc([N+](=O)[O-])c(C)c2c1[nH]c1ccc(O)cc12`, for which the GI50 in the assay on DMS-114 is 66.4 µM (inactive); in the assay on XF498 it was > 100 µM (inactive); in the assay with SNB-78, > 100 µM (inactive); in the assay with HOP-18, 55.1 µM (inactive); with DLD-1 it was 16.8 µM (inactive); in the assay with M19-MEL, > 100 µM (inactive).

For the molecule `COc1ccc2[nH]cc(CCNC(=O)[C@](O)(Cc3cn(C)c4ccccc34)[C@@]3(O)OCC(O)C3O)c2c1` (stereo partly drawn), the GI50 was 35.6 µM (inactive) in the assay with DMS-114; 67.8 µM (inactive) with LXFL 529; 90.6 µM (inactive) in the assay with XF498; > 100 µM (inactive) in the assay on HOP-18; > 100 µM (inactive) with DLD-1; > 100 µM (inactive) with RXF 631. Besides, the GI50 in the assay with M19-MEL and in the assay with KM-20L2 was > 100 µM (inactive) throughout.

For the molecule `CCCCCCCC(=O)OCC1OC(OC)C(NC(=O)N(CCCl)N=O)C(O)C1O` (stereo not drawn), the GI50 in the assay on DMS-114 was 11.9 µM (inactive); in the assay with LXFL 529, 16.9 µM (inactive); in the assay on XF498, 10.2 µM (inactive); in the assay with SNB-78, 22.9 µM (inactive); with HOP-18 it was 18.5 µM (inactive); with DLD-1, 11.9 µM (inactive). In addition, the results for the GI50 in the assay on RXF 631, in the assay on M19-MEL and in the assay with KM-20L2 were 2.48 µM (inactive), 17.9 µM (inactive) and 20.8 µM (inactive), respectively.

With `CCOC(=O)NC/C=C/COC1CCCCO1` (stereo not drawn), the GI50 with DMS-114, with LXFL 529, in the assay on SNB-78, in the assay with HOP-18, in the assay on DLD-1 and in the assay on M19-MEL was > 100 µM (inactive) in each case. Besides, the GI50 in the assay on KM-20L2 is > 100 µM (inactive).

For the molecule `CCN1C2=NC(=O)N(C)C(=O)C2(Cl)C(C(SC)S(=O)(=O)c2ccc(C)cc2)c2ccccc21` (stereo not drawn), the GI50 with DMS-114 is 41.1 µM (inactive); in the assay on LXFL 529, 23.3 µM (inactive); in the assay with XF498 it was 49.5 µM (inactive); in the assay with SNB-78, 24.2 µM (inactive); in the assay with DLD-1, 33.4 µM (inactive); with RXF 631, 21.4 µM (inactive). Further, the GI50 is 24.7 µM (inactive) in the assay with M19-MEL and 57.8 µM (inactive) with KM-20L2.

Turning to `COc1ccc(C(=O)C(c2ccc(OCc3ccccc3)cc2)c2ccc(OCc3ccccc3)cc2)cc1`, the GI50 in the assay with DMS-114 is > 100 µM (inactive); in the assay with XF498, > 100 µM (inactive); with SNB-78 it was > 100 µM (inactive); in the assay on DLD-1 it was > 100 µM (inactive); in the assay with RXF 631, 2.67 µM (inactive); in the assay with M19-MEL, > 100 µM (inactive). The GI50 in the assay with KM-20L2 is > 100 µM (inactive).

Consider `O=C(CC1(O)C(=O)Nc2c(Cl)ccc(Cl)c21)c1ccco1` (stereo not drawn), for which the GI50 in the assay on DMS-114 was 18 µM (inactive); in the assay on LXFL 529, 14 µM (inactive); in the assay on XF498, 11.9 µM (inactive); with SNB-78, 51.8 µM (inactive); with HOP-18, > 100 µM (inactive); with DLD-1, 39.7 µM (inactive). Also, the GI50 was 26.4 µM (inactive) with RXF 631, 2.31 µM (inactive) in the assay with M19-MEL and 37.8 µM (inactive) with KM-20L2.

With `COc1ccc(C(=C(C#N)C#N)c2ccc(OC)cc2)cc1`, the GI50 with DMS-114 is 77.1 µM (inactive); in the assay on LXFL 529, > 100 µM (inactive); in the assay on SNB-78, > 100 µM (inactive); in the assay on KM-20L2 it was > 100 µM (inactive).

Turning to `NC(=O)/N=C1/CCC2C3CCCC2C13`, the GI50 in the assay on DMS-114, with LXFL 529, with XF498, in the assay on SNB-78, with HOP-18 and in the assay with DLD-1 was > 100 µM (inactive) throughout. Moreover, the GI50 with KM-20L2 was > 100 µM (inactive).

In the case of `COc1ccc(/C=C2\C(=O)Nc3ccccc32)cc1OC`, the GI50 in the assay on LXFL 529 was 58.1 µM (inactive); with XF498 it was > 100 µM (inactive); with SNB-78, 37.7 µM (inactive); in the assay with HOP-18, > 100 µM (inactive); with KM-20L2, > 100 µM (inactive).

As to `O=C(N/C(=C\c1ccc(Cl)cc1)c1nc2ccccc2[nH]1)c1ccccc1`, the GI50 with LXFL 529 was 15.3 µM (inactive); with XF498, 18.6 µM (inactive); in the assay on SNB-78, 29.3 µM (inactive); with HOP-18, 13.7 µM (inactive); with DLD-1, 15.8 µM (inactive); in the assay on M19-MEL, 19 µM (inactive). Besides, the GI50 in the assay on KM-20L2 is 2.44 µM (inactive).

Take `N#Cc1c(-c2ccccc2)c(-c2ccccc2)cc2c(=O)c3ccc(Cl)cc3[nH]c12`: the GI50 in the assay with LXFL 529, in the assay on XF498, in the assay on HOP-18, in the assay on DLD-1, with M19-MEL and with KM-20L2 was > 100 µM (inactive) each time.

For the molecule `O=C1[C@@H]2C(c3ccccc3Br)=NO[C@@H]2C(=O)N1c1ccc(Cc2ccc(N3C(=O)[C@H]4C(c5ccccc5Br)=NO[C@H]4C3=O)cc2)cc1`, the GI50 is > 100 µM (inactive) in the assay on DMS-114; > 100 µM (inactive) in the assay with LXFL 529; 67.9 µM (inactive) in the assay with XF498; > 100 µM (inactive) with SNB-78; 45.6 µM (inactive) with HOP-18; > 100 µM (inactive) with DLD-1. The GI50 in the assay on RXF 631, with M19-MEL and with KM-20L2 was > 100 µM (inactive) throughout.

With `Cc1cc(O)nc(CNC(=O)c2ccc3ccccc3c2)n1`, the GI50 in the assay on DMS-114, with LXFL 529, with XF498, in the assay on HOP-18, in the assay on DLD-1 and in the assay with RXF 631 was > 100 µM (inactive) each time. The GI50 in the assay with M19-MEL and with KM-20L2 was > 100 µM (inactive) throughout.

On to `CCn1c(C)nc([N+](=O)[O-])c1Sc1ncc[nH]1`, for which the GI50 with DMS-114 is 34.4 µM (inactive); in the assay on LXFL 529 it was 26.1 µM (inactive); in the assay on XF498, 43.2 µM (inactive); with SNB-78, 33.7 µM (inactive); in the assay on HOP-18, 4.8 µM (inactive); with DLD-1, 30.5 µM (inactive). Further, the GI50 in the assay with RXF 631 was 24.7 µM (inactive); in the assay with M19-MEL, 36.8 µM (inactive).

On to `COC(=O)c1cc2c(=O)n(C)c3ccccc3n2c1C(=O)OC`, for which the GI50 with DMS-114 is > 100 µM (inactive); in the assay on LXFL 529, > 100 µM (inactive); with XF498, 20.4 µM (inactive); in the assay on SNB-78 it was > 100 µM (inactive); in the assay with DLD-1, 30.1 µM (inactive); in the assay on RXF 631, > 100 µM (inactive). Also, the values for the GI50 in the assay with M19-MEL and in the assay on KM-20L2 were > 100 µM (inactive) and 53.3 µM (inactive), respectively.

In the case of `CC[C@H]1CC(=O)c2c(cc3c(c2O)C(=O)c2ccccc2C3=O)[C@@]1(C#N)C(=O)OC(C)(C)C`, the GI50 in the assay on DMS-114 is 3.21 µM (inactive); in the assay with LXFL 529, 3.25 µM (inactive); in the assay with XF498, 2.74 µM (inactive); with SNB-78, 4.89 µM (inactive); in the assay on HOP-18 it was 3.52 µM (inactive); with DLD-1, 2.33 µM (inactive). In addition, the values for the GI50 with M19-MEL and with KM-20L2 were 3.7 µM (inactive) and 4.08 µM (inactive), respectively.

For the molecule `CN(C)CCNC(=O)c1cc2ccccc2c2nc3ccccc3nc12`, the GI50 is 0.83 µM (active) with DMS-114; 1.43 µM (inactive) in the assay with LXFL 529; 3.55 µM (inactive) in the assay with SNB-78; 5.82 µM (inactive) in the assay on HOP-18; 0.447 µM (active) in the assay on DLD-1; 1.01 µM (active) with M19-MEL. For the same molecule, in the assay with KM-20L2, the GI50 was 0.946 µM (active).

Take `COc1ccc2c(c1)O[C@@H]1c3ccc(OC)cc3OC[C@H]21`: the GI50 with DMS-114 is 27.5 µM (inactive); in the assay with LXFL 529 it was 28.8 µM (inactive); in the assay on XF498, 25.6 µM (inactive); in the assay on SNB-78, 33.8 µM (inactive); with DLD-1 it was 45.2 µM (inactive); in the assay with M19-MEL, 31.4 µM (inactive).

Turning to `C=CCC12CCC(=O)[C@@]1(C)CC=C(O)C2=O` (stereo partly drawn), the GI50 in the assay with DMS-114, in the assay with LXFL 529, with SNB-78, with HOP-18, in the assay on DLD-1 and in the assay with M19-MEL was > 100 µM (inactive) throughout. Besides, the GI50 in the assay on KM-20L2 is > 100 µM (inactive).

Turning to `COC(=O)C1C=CCON2CCc3c(n(S(=O)(=O)c4ccccc4)c4ccccc34)C12` (stereo not drawn), the GI50 was 41.2 µM (inactive) with DMS-114; 73.8 µM (inactive) with LXFL 529; > 100 µM (inactive) in the assay with SNB-78; 64.6 µM (inactive) with HOP-18; 10.7 µM (inactive) in the assay with DLD-1; 40.6 µM (inactive) in the assay with M19-MEL. For the same molecule, the GI50 in the assay with KM-20L2 is 42.1 µM (inactive).

Take `CC(=O)OC1CC2CCN3C(=O)c4cc5c(cc4[C@H](C1OC(C)=O)C23)OCO5` (stereo partly drawn): the GI50 with LXFL 529, in the assay with SNB-78, in the assay on DLD-1, with M19-MEL and in the assay with KM-20L2 was > 100 µM (inactive) in each case.

On to `O=C1CC[C@H](NC(=O)Cc2ccccc2)C(=O)N1` [ANTINEOPLASTON A10], for which the GI50 in the assay on LXFL 529, in the assay on XF498, with HOP-18, with DLD-1, with M19-MEL and in the assay on KM-20L2 was > 1250 µM (inactive) in each case.
